Measurements published in the kinase profiling compilation of Christmann-Franck et al. (2016).

Experiments:
Assay in all cases: radiometric filter-binding kinase assay, Kinase HotSpot
Conditions in all cases: compound 0.5 µM; ATP 10 µM
[1] = molecular target: LIMK1 (human) (UniProt P53667)
[2] = molecular target: CDK9 CCNK (human) (UniProt O75909+P50750)
[3] = molecular target: CHEK1 (human) (UniProt O14757)
[4] = molecular target: CSNK1E (human) (UniProt P49674)
[5] = molecular target: CHEK2 (human) (UniProt O96017)
[6] = molecular target: MAP3K7 TAB1 (human) (UniProt O43318+Q15750)
[7] = molecular target: PRKACA (human) (UniProt P17612)
[8] = molecular target: ABL2 (human) (UniProt P42684)
[9] = molecular target: VRK1 (human) (UniProt Q99986)
[10] = molecular target: PRKG2 (human) (UniProt Q13237)
[11] = molecular target: MATK (human) (UniProt P42679)
[12] = molecular target: CDK2 CCNA2 (human) (UniProt P24941+P20248)
[13] = molecular target: FGFR3 (human) (UniProt P22607)
[14] = molecular target: AXL (human) (UniProt P30530)
[15] = molecular target: MST4 (human) (UniProt Q9P289)
[16] = molecular target: TGFBR2 (human) (UniProt P37173)
[17] = molecular target: GSK3A (human) (UniProt P49840)
[18] = molecular target: KDR (human) (UniProt P35968)
[19] = molecular target: TBK1 (human) (UniProt Q9UHD2)
[20] = molecular target: CDK1 CCNB1 (human) (UniProt P06493+P14635)
[21] = molecular target: ACVRL1 (human) (UniProt P37023)
[22] = molecular target: ULK1 (human) (UniProt O75385)
[23] = molecular target: PIM3 (human) (UniProt Q86V86)
[24] = molecular target: CHUK (human) (UniProt O15111)
[25] = molecular target: PDGFRA (human) (UniProt P16234)
[26] = molecular target: EPHA1 (human) (UniProt P21709)
[27] = molecular target: ROCK2 (human) (UniProt O75116)
[28] = molecular target: PRKD2 (human) (UniProt Q9BZL6)
[29] = molecular target: CAMK2B (human) (UniProt Q13554)
[30] = molecular target: NEK9 (human) (UniProt Q8TD19)
[31] = molecular target: FLT3 (human) (UniProt P36888)
[32] = molecular target: MARK4 (human) (UniProt Q96L34)
[33] = molecular target: NEK4 (human) (UniProt P51957)
[34] = molecular target: MAP4K5 (human) (UniProt Q9Y4K4)
[35] = molecular target: ERBB4 (human) (UniProt Q15303)
[36] = molecular target: WNK3 (human) (UniProt Q9BYP7)
[37] = molecular target: CDK4 CCND3 (human) (UniProt P30281+P11802)
[38] = molecular target: HIPK2 (human) (UniProt Q9H2X6)
[39] = molecular target: PHKG2 (human) (UniProt P15735)
[40] = molecular target: RPS6KA5 KD2 (human) (UniProt O75582)
[41] = molecular target: RPS6KA4 KD2 (human) (UniProt O75676)

CDK9 CCNK (human), sequence (O75909 whole entry, looked up): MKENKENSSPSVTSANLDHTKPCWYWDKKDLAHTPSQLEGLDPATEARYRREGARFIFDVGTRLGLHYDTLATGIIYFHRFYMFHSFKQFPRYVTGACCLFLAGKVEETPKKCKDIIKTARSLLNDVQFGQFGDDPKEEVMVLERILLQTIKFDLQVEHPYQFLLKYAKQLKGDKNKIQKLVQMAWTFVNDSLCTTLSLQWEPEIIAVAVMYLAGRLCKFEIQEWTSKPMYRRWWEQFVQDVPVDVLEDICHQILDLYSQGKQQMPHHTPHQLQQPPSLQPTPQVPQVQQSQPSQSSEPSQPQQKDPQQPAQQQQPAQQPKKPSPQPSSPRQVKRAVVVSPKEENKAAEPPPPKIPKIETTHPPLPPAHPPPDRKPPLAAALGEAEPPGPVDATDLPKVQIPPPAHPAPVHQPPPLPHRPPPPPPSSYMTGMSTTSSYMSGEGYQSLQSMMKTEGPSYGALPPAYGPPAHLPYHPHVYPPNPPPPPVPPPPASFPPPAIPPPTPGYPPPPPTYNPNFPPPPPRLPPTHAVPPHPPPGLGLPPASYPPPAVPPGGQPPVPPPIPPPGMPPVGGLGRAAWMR
CDK9 CCNK (human), sequence (P50750 whole entry, looked up): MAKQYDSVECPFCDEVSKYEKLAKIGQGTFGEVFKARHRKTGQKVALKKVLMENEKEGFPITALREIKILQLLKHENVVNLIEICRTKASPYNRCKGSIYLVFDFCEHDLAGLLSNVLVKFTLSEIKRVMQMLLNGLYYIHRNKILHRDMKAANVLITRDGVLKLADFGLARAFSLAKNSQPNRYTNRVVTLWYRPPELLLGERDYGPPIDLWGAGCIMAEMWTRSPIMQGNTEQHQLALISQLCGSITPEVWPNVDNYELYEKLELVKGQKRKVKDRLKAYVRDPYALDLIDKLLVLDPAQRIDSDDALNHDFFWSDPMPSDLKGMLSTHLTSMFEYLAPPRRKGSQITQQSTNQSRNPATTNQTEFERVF
MAP4K5 (human), sequence (Q9Y4K4 whole entry, looked up): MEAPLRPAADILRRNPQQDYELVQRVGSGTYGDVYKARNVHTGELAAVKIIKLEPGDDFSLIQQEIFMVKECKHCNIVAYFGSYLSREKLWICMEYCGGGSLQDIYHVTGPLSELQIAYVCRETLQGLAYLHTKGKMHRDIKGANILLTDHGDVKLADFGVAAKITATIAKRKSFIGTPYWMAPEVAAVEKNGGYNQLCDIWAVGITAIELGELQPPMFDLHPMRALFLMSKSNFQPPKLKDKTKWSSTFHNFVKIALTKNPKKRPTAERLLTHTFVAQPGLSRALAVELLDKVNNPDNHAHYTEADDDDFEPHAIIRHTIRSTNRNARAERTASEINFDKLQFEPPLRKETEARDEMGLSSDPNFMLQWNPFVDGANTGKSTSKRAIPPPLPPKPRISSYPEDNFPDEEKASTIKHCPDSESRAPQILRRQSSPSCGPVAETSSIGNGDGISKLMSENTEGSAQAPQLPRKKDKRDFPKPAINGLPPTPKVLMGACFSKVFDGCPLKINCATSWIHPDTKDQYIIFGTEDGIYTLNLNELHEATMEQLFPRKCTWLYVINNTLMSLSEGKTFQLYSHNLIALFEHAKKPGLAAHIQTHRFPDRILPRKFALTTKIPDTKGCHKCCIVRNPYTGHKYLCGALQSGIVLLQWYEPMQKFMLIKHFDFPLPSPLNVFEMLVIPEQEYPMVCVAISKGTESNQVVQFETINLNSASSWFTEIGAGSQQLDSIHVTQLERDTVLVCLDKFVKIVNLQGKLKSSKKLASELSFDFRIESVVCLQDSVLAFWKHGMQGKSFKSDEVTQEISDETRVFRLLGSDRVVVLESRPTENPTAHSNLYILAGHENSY
CSNK1E (human), sequence (P49674 whole entry, looked up): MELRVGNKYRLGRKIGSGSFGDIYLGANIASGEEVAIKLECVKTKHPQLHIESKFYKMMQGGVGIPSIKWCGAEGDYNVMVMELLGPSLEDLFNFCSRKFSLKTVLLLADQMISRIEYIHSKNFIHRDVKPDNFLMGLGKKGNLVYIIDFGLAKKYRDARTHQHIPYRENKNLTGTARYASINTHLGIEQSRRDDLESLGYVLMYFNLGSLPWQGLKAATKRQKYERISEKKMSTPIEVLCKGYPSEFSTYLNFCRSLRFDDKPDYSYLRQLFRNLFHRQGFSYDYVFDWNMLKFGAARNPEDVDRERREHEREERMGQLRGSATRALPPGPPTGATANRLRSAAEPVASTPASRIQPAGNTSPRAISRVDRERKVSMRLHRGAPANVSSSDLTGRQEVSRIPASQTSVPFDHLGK
MARK4 (human), sequence (Q96L34 whole entry, looked up): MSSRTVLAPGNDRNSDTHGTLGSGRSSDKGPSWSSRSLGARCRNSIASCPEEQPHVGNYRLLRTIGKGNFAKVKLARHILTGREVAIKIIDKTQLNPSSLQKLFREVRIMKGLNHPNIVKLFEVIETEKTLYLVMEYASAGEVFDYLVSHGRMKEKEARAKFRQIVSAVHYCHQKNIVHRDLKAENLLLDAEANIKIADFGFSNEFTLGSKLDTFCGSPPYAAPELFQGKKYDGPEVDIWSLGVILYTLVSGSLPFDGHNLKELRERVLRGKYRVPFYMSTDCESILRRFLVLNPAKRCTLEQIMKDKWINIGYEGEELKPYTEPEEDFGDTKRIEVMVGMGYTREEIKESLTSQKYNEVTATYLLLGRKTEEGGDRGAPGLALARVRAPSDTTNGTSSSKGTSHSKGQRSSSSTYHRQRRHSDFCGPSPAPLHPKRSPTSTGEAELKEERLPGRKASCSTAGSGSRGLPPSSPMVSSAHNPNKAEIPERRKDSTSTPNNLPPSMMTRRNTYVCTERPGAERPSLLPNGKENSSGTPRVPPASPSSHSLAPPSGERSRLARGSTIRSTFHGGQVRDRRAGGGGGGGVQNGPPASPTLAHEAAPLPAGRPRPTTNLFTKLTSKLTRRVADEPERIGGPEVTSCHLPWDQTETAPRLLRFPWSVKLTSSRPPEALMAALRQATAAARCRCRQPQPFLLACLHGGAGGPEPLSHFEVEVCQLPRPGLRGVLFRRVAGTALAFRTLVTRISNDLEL
PHKG2 (human), sequence (P15735 whole entry, looked up): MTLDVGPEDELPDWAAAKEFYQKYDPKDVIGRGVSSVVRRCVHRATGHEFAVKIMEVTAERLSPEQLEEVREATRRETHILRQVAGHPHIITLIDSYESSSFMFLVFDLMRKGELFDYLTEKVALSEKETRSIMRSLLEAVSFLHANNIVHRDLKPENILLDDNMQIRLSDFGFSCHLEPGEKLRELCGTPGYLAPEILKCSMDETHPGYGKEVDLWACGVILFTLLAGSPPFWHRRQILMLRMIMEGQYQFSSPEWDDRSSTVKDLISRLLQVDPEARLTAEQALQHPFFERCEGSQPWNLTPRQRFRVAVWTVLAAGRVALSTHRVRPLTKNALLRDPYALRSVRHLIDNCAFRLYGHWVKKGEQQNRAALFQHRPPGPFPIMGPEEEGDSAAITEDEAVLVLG
CDK4 CCND3 (human), sequence (P11802 whole entry, looked up): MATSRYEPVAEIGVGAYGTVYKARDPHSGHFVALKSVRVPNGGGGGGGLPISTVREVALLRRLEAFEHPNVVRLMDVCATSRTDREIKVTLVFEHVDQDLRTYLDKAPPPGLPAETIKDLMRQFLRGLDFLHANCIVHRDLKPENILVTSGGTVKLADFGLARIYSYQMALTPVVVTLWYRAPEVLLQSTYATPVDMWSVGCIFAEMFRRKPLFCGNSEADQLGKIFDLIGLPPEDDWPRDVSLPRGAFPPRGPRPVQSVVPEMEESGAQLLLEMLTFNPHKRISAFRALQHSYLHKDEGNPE
CDK4 CCND3 (human), sequence (P30281 whole entry, looked up): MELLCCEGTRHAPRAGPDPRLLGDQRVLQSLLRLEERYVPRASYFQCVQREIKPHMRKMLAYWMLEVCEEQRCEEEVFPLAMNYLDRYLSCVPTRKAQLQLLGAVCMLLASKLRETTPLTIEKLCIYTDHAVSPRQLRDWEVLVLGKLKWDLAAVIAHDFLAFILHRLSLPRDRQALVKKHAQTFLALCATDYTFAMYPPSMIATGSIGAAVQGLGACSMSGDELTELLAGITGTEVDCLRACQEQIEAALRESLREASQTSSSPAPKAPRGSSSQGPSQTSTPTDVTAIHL
ULK1 (human), sequence (O75385 whole entry, looked up): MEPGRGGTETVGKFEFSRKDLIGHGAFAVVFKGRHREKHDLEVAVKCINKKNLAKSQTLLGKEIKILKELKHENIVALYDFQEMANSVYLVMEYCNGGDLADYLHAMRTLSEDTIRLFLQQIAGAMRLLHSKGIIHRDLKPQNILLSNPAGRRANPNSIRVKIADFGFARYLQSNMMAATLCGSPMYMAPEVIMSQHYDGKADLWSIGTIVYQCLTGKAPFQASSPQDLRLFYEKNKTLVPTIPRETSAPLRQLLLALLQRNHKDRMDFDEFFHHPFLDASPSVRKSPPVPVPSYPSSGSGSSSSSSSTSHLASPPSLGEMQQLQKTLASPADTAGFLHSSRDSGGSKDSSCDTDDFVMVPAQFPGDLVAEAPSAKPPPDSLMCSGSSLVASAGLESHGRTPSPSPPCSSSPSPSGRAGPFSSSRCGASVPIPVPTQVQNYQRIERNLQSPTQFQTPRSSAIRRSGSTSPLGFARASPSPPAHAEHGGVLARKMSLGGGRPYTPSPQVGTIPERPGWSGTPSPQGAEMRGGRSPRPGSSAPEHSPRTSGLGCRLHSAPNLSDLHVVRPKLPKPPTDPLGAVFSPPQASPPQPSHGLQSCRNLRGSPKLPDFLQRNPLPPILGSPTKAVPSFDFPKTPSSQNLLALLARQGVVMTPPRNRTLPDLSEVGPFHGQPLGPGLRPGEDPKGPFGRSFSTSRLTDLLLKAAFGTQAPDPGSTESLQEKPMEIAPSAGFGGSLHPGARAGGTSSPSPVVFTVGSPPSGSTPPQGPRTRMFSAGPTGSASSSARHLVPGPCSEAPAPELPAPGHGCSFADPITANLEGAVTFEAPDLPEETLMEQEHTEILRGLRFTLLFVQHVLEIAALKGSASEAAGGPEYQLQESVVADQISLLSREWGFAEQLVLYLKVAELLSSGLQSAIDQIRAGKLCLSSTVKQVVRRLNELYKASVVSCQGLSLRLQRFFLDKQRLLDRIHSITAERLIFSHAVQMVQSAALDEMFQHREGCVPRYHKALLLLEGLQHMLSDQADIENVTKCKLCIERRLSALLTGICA

## O=C(NC(NC(=S)Nc1ccc(F)c([N+](=O)[O-])c1)C(Cl)(Cl)Cl)C(c1ccccc1)c1ccccc1 (centres undefined)
[1]
  residual activity: 94.5%
[2]
  residual activity: 110%
[3]
  residual activity: 100%
[4]
  residual activity: 111%
[5]
  residual activity: 97.6%
[6]
  residual activity: 89.7%
[7]
  residual activity: 102%
[8]
  residual activity: 105%
[9]
  residual activity: 96.7%
[10]
  residual activity: 96.6%
[11]
  residual activity: 96.5%
[12]
  residual activity: 102%
[13]
  residual activity: 96.8%
[14]
  residual activity: 112%
[15]
  residual activity: 89.3%
[16]
  residual activity: 91.6%
[17]
  residual activity: 105%
[18]
  residual activity: 92.5%
[19]
  residual activity: 98.7%
[20]
  residual activity: 92.1%
[21]
  residual activity: 107%
[22]
  residual activity: 99.1%
[23]
  residual activity: 120%
[24]
  residual activity: 91.5%
[25]
  residual activity: 100%
[26]
  residual activity: 88.1%
[27]
  residual activity: 109%
[28]
  residual activity: 107%
[29]
  residual activity: 104%
[30]
  residual activity: 110%
[31]
  residual activity: 99.3%
[32]
  residual activity: 104%
[33]
  residual activity: 87.8%
[34]
  residual activity: 91%
[35]
  residual activity: 103%
[36]
  residual activity: 108%
[37]
  residual activity: 93.7%
[38]
  residual activity: 118%
[39]
  residual activity: 109%
[40]
  residual activity: 113%
[41]
  residual activity: 92.7%

## Nc1n[nH]c2nnc(-c3c(-c4ccccc4)nn4ccccc34)cc12
[1]
  residual activity: 98.2%
[2]
  residual activity: 98.5%
[3]
  residual activity: 103%
[4]
  residual activity: 80.9%
[5]
  residual activity: 97%
[6]
  residual activity: 101%
[7]
  residual activity: 97.7%
[8]
  residual activity: 57.5%
[9]
  residual activity: 92.2%
[10]
  residual activity: 104%
[11]
  residual activity: 95.6%
[12]
  residual activity: 92.9%
[13]
  residual activity: 102%
[14]
  residual activity: 99.1%
[15]
  residual activity: 75.9%
[16]
  residual activity: 112%
[17]
  residual activity: 81.2%
[18]
  residual activity: 101%
[19]
  residual activity: 100%
[20]
  residual activity: 90.2%
[21]
  residual activity: 106%
[22]
  residual activity: 97.1%
[23]
  residual activity: 100%
[24]
  residual activity: 97.5%
[25]
  residual activity: 99.7%
[26]
  residual activity: 92.6%
[27]
  residual activity: 89.6%
[28]
  residual activity: 54.1%
[29]
  residual activity: 102%
[30]
  residual activity: 93.4%
[31]
  residual activity: 63.5%
[32]
  residual activity: 105%
[33]
  residual activity: 88.4%
[34]
  residual activity: 50.3%
[35]
  residual activity: 91.4%
[36]
  residual activity: 101%
[37]
  residual activity: 100%
[38]
  residual activity: 104%
[39]
  residual activity: 82.6%
[40]
  residual activity: 101%
[41]
  residual activity: 94.7%

## NC(=O)c1ccc(N(C(N)=O)c2c(F)cccc2F)nc1-c1ccc(F)cc1F
[1]
  residual activity: 98.5%
[2]
  residual activity: 106%
[3]
  residual activity: 89.2%
[4]
  residual activity: 98.2%
[5]
  residual activity: 97.6%
[6]
  residual activity: 105%
[7]
  residual activity: 101%
[8]
  residual activity: 100%
[9]
  residual activity: 104%
[10]
  residual activity: 98.1%
[11]
  residual activity: 77.6%
[12]
  residual activity: 87.8%
[13]
  residual activity: 90.2%
[14]
  residual activity: 101%
[15]
  residual activity: 117%
[16]
  residual activity: 102%
[17]
  residual activity: 98.6%
[18]
  residual activity: 96.5%
[19]
  residual activity: 106%
[20]
  residual activity: 95.7%
[21]
  residual activity: 99.3%
[22]
  residual activity: 104%
[23]
  residual activity: 97.7%
[24]
  residual activity: 100%
[25]
  residual activity: 102%
[26]
  residual activity: 99.1%
[27]
  residual activity: 97.7%
[28]
  residual activity: 81.8%
[29]
  residual activity: 104%
[30]
  residual activity: 104%
[31]
  residual activity: 97.2%
[32]
  residual activity: 102%
[33]
  residual activity: 104%
[34]
  residual activity: 98.3%
[35]
  residual activity: 98.1%
[36]
  residual activity: 96.6%
[37]
  residual activity: 98.4%
[38]
  residual activity: 100%
[39]
  residual activity: 93.1%
[40]
  residual activity: 92.8%
[41]
  residual activity: 99%

## CC(C)[C@H](CO)Nc1nc(Nc2cccc(Cl)c2)c2ncn(C(C)C)c2n1
[1]
  residual activity: 86.3%
[2]
  residual activity: 63.6%
[3]
  residual activity: 97.9%
[4]
  residual activity: 87.3%
[5]
  residual activity: 88.1%
[6]
  residual activity: 71.1%
[7]
  residual activity: 102%
[8]
  residual activity: 32.2%
[9]
  residual activity: 99.5%
[10]
  residual activity: 89.3%
[11]
  residual activity: 93.1%
[12]
  residual activity: 6.91%
[13]
  residual activity: 99.2%
[14]
  residual activity: 94.7%
[15]
  residual activity: 100%
[16]
  residual activity: 98.1%
[17]
  residual activity: 108%
[18]
  residual activity: 95%
[19]
  residual activity: 93%
[20]
  residual activity: 34.9%
[21]
  residual activity: 96.7%
[22]
  residual activity: 67.5%
[23]
  residual activity: 84.9%
[24]
  residual activity: 106%
[25]
  residual activity: 96.9%
[26]
  residual activity: 98.3%
[27]
  residual activity: 100%
[28]
  residual activity: 99.7%
[29]
  residual activity: 94.3%
[30]
  residual activity: 93.1%
[31]
  residual activity: 16.4%
[32]
  residual activity: 89.8%
[33]
  residual activity: 94.4%
[34]
  residual activity: 97.5%
[35]
  residual activity: 78.4%
[36]
  residual activity: 89.1%
[37]
  residual activity: 88.3%
[38]
  residual activity: 86.3%
[39]
  residual activity: 117%
[40]
  residual activity: 100%
[41]
  residual activity: 90.1%
